# Source: patent US9790253B2, “OSW-1 analogs and conjugates, and uses thereof” (priority 2011, dated 2017)
# “Also recorded” adds a separate entry of the source. Read-outs that look alike come from different tables or passages of the source. Where a SMILES comes first, the peptide text is derived from it. The star is where a group is joined. Cbz = O=C(OCc1ccccc1)*
# Columns and labels:
# OSBP1-myc-his = target: T1, OSBP1-myc-his (Homo sapiens, UniProt P22059); assay: [3H]-25-hydroxycholesterol charcoal-dextran binding assay with OSBP1-myc-his
# T1 construct: made in house; host or cells: HEK-293T (transient transfection; S100 lysate, not purified)
# T1 sequence (P22059 1-807): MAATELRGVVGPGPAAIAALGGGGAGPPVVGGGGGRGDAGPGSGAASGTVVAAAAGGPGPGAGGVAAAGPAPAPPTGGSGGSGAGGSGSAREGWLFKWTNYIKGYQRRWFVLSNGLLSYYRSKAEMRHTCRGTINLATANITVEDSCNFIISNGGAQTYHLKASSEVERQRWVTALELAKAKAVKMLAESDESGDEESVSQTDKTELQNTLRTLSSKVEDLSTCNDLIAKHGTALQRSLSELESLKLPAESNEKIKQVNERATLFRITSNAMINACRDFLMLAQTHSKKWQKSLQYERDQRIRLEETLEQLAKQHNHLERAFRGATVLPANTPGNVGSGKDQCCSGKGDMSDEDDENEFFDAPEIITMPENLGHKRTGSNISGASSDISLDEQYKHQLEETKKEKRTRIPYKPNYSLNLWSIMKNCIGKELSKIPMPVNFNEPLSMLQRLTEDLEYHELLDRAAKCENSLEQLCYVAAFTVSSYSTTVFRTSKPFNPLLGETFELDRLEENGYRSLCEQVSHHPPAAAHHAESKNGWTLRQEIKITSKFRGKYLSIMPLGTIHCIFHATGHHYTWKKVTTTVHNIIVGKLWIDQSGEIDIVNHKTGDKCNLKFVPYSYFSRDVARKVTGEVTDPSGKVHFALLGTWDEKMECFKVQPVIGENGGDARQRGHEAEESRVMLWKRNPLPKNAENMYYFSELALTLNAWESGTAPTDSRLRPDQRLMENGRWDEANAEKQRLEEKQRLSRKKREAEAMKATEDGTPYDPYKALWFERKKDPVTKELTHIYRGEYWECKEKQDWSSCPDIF
# Text: [^3H]-25-Hydroxycholesterol charcoal-dextran binding assay.
# (§1) Methods are described above in the General Methods section.
# [1] = tested on: HCT-116 p21^+/+ (wt) cells; assay: Growth inhibition (cell viability assay) of HCT-116 p21+/+ cells; conditions: for GI50: Homo sapiens
# Experimental: (§2) Cell viability assay. Cells were plated into 96-well plates in 75 μL of media. After 24 h, a time-zero plate was produced by adding 25 μL of media and 20 μL of CellTiter-Blue® (Promega) to the wells, followed by incubation at 37° C. for 90 min. Fluorescence (544 nm excitation; 590 nm emission) was detected using a SPECTRAmax® Gemini XS to establish cell viability at time of dosing. Then, compounds were serially diluted in media and delivered to the cells as 4× solutions in 25 μL of media. At either 48 h or 72 h, CellTiter-Blue® was added and the fluorescence was recorded as described above.
# (§3) Tasdemir et al. (2002) J Nat Prod 65:210-4. GI50-values of the compounds were determined in HCT-116 p21^+/+ (wt) and p21^−/− cells after 48 h using a resazurin redox dye to measure cell viability.
# as §1
# HCT-116 p21^−/− cells = assay: cells; conditions: for GI50: Homo sapiens, HCT-116, 48 h, read-out: GI50 (nM) 48 h p21^−/−
# Experimental: as §2, §3, §1
# A549 cells = assay: cells; format: cell-based, human; conditions: for GI50: Homo sapiens, A549, 48 h, read-out: GI50 (nM) 48 h
# Text: Methods are essentially as described above in the General Methods section in connection with assays using HCT-116 cells.
# ORP4L-myc-his = target: T2, ORP4L-myc-his (Homo sapiens, UniProt Q969R2); assay: [3H]-25-hydroxycholesterol charcoal-dextran binding assay with ORP4L-myc-his
# T2 sequence (Q969R2 1-916): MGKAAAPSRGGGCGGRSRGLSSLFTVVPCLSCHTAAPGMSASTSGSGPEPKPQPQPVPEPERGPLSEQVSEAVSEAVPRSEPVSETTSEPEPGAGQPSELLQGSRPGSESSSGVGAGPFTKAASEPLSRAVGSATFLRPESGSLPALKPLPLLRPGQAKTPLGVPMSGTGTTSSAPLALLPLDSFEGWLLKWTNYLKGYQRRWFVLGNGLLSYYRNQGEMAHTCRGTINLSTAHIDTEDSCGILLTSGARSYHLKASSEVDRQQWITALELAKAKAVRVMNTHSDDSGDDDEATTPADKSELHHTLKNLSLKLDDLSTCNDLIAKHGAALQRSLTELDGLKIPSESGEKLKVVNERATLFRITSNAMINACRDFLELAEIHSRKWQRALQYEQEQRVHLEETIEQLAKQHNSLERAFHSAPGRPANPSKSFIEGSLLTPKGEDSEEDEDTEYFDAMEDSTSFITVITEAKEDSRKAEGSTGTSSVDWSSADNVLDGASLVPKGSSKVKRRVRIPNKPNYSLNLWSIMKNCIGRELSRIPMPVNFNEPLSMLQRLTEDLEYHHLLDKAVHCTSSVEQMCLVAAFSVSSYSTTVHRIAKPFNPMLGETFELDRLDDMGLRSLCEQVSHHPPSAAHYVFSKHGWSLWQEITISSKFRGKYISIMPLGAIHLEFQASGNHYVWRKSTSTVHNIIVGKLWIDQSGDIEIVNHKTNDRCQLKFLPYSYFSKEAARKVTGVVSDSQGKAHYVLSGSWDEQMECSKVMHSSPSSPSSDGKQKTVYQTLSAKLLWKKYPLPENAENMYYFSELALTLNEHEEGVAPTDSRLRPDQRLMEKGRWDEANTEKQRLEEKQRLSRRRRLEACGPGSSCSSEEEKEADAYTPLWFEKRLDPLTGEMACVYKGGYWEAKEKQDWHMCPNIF
# Experimental: [^3H]-25-Hydroxycholesterol charcoal-dextran binding assay. […] These vectors were transfected into HEK-293T cells using Lipofectamine™2000 (Invitrogen), and 48 h after transfection, on-plate lysis of the transfected cells with the M-Per®/HALT™ with EDTA (ThermoScientific) reagent was performed, followed by ultracentrifugation at 100,000 g. The S100 lysate was diluted to 0.2 mg/mL, aliquoted and stored at −80° C. until use. The HEK-293T OSBP1-, ORP4L- or lacZ-myc-his lysate was incubated with [^3H]-25-hydroxycholesterol at 4° C. for 16 h in 96-well plates. After incubation, charcoal/dextran (C/D) was added to the wells for 30 min of shaking at RT, followed by centrifugation for 15 min at 1900 g to pellet the C/D. The C/D-cleared lysate was added to MicroScint™-20 (PerkinElmer) scintillation fluid, and the remaining protein-bound radiolabel was quantified using a TopCount™ scintillation counter. [^3H]-25-hydroxycholesterol binding curves and competition curves were repeated at least three times.
# Lysates were thawed on ice, with brief periods of hand warming. Both the ^3H-25-OHC direct binding assays and the ^3H-25-OHC competition binding assays were set up similarly, with a large stock of binding assay lysate being prepared, then 73.5 μL of the binding assay mixture dispensed using a multi-channel pipettor into “V”-shaped 96-well plates. For the ^3H-25-OHC direct binding assay, 1.5 μL of ^3H-25-OHC and ^3H-25-OHC/40×25-OHC added to the wells in dilutions in 100% ethanol. For the ^3H-25-OHC competition binding assays, ^3H-25-OHC was added to the large stock of binding assay lysate to a final concentration of 20 nM. This ^3H-25-OHC-containing binding lysate was then dispensed using a multi-channel pipettor into the 96-well plates. Then, 1.5 μL of a serial dilution of the inhibitors in either 100% ethanol (25-OHC) or DMSO (the ORPphilins) was added to each well.
# The binding lysate used in each well of the 96-well plate consisted of 60 μL of 0.2 mg/mL S100 lysate, 7.5 μL 20% PVA, and 5.6 μL 2M KCl. For ^3H-25-OHC binding curve experiments, 0.4 μL of buffer was then added (total volume per well: 73.5 μL). For the ^3H-25-OHC inhibition competition assays, 0.11 μL of 13.2 μM ^3H-25-OHC and 0.29 μL binding buffer was added for each well (total volume per well: 73.5 μL).
# Binding assays were incubated, standing, for 16 h at 4° C. Then 30 μL of the rt C/D solution was multichannel pipetted into new “V’ shaped 96-well plates, and 60 μL of the binding lysate mixture was then added. The plates were briefly, lightly vortexed (˜10 sec), 10 and then rocked at 250 rpm for 30 min at rt. The plates were then centrifuged at 1900 g for 15 min at 4° C. in Microplate Carriers (Sorvall cat. #75006449S) in a Sorvall Legend RT centrifuge. Carefully so as to not disturb the C/D pellet, 30 μL of the supernatant was transferred to 170 μL of Microscint-20 in the OptiPlates. The plates were sealed with the TopSealA-Films, and vigorously vortexed (max speed, >1 min). ^3H-25-OHC detection in the wells was then performed using a TopCount Scintillation detector, counting each well for 2 min. Data was graphed and analyzed using GraphPad PrismS, using non-linear regression to determine KD and K1 values.
# Binding experiments were performed at 4° C. for 16 h. Unbound sterol was removed using dextran-coated charcoal, and protein-bound sterol left in the supernatant was quantified by scintillation counting. Ki-values were determined as mean±s.d. from at least three independent experiments.
# [2] = target: T3, OSBP1 protein levels in HCT-116 cells (Homo sapiens, UniProt P22059); assay: OSBP1 protein levels by western blotting; format: cell-based; conditions: for block of OSBP1 degradation by 1 and 2: co-administered with 1 and 2; for effect on OSBP1 levels, compound alone: concentration not given
# T3 construct: endogenous in cells; host or cells: HCT-116
# T3 sequence (P22059 1-807): T1 sequence (P22059 1-807)
# Experimental: A possible explanation for this observation was that treatment with 1 and 2 caused a decrease in OSBP1 levels. Treatment of HCT-116 cells with vehicle (DMSO) or 25-OHC (10 μM) had no effect on OSBP1 levels, as assessed by western blotting (FIG. 6A). However, treatment with 1 or 2 induced a dramatic, time-dependent reduction of OSBP1 levels (FIG. 6A). For example, 50 nM of 1 or 10 nM of 2 caused an approximately 75% reduction in OSBP1 protein levels at 24 h in HCT-116 cells (FIG. 6A), with a similar effect recorded in A549 cells. […] OSBP1 levels were determined using both an antibody recognizing the far N-terminus of OSBP1 (FIG. 6) and also an antibody recognizing the C-terminus of OSBP1.
# One possible explanation for the reduction in OSBP1 levels upon treatment with 1 and 2 was proteasome-dependent degradation. To determine whether degradation of OSBP1 was proteasome dependent, proteasome inhibitors MG-132 or lactacystin were co-administered with 1 and 2. […] Similar results were obtained in A549 cells.
# HCT-116 cells = assay: Growth inhibition with 25-OHC co-administration; format: cell-based, human; conditions: 10 μM 25-OHC for 1 and 2
# Experimental: 25-OHC (11) is a high-affinity ligand of OSBP1 and ORP4L that is not cytotoxic at concentrations up to 10 μM. Example 1 established that the ORPphilins compete with 25-OHC for binding to OSBP1 and ORP4L (FIG. 2D,E). Therefore, if OSBP1 and ORP4L mediate the biological activities of these compounds, co-administration of sub-lethal doses of 25-OHC with the ORPphilins should inhibit binding of the ORPphilins to OSBP1 and ORP4L, thereby desensitizing cells to the cytotoxic effects of the ORPphilins.
# [3] = HCT-116, 48 h, read-out: GI50 (nM) 48 h p21^+/+
# [4] = competition with 20 nM [3H]-25-OHC, HEK-293T S100 lysate, 4° C., 16 h
SMILES,Ki (OSBP1-myc-his),"GI50 [1, 3]",GI50 (HCT-116 p21^−/− cells),GI50 (A549 cells),Ki (ORP4L-myc-his),also measured
C=CCOC(=O)NCc1ccc(CNC(=O)OC2C(O)COC(OC3C(O)COC(O[C@H]4C[C@H]5[C@@H]6CC=C7C[C@@H](O)CC[C@]7(C)C6CC[C@]5(C)[C@@]4(O)[C@H](C)C(=O)CCC(C)C)C3OC(C)=O)C2OC(=O)c2ccc(OC)cc2)cc1 (stereo partly drawn) [Compound 6a],18 ± 5 nM,0.6 ± 0.13 nM,0.08 ± 0.02 nM,0.1 ± 0.04 nM,43 ± 9 nM,antiproliferative potency relative to 2 [1]: maintained the antiproliferative potency of 2; p21−/− selectivity of growth inhibition (HCT-116 p21−/− versus wt) (HCT-116 p21^−/− cells; 48 h): commensurate with that of 2
C=CCOC(=O)NCc1ccc(CNC(=O)OC2COC(OC3C(O)COC(O[C@H]4C[C@H]5[C@@H]6CC=C7C[C@@H](O)CC[C@]7(C)C6CC[C@]5(C)[C@@]4(O)[C@H](C)C(=O)CCC(C)C)C3OC(C)=O)C(OC(=O)c3ccc(OC)cc3)C2O)cc1 (stereo partly drawn) [Compound 6c],46 ± 11 nM,17 ± 4 nM,2.2 ± 0.5 nM,2.9 ± 0.9 nM,150 ± 50 nM,
CC(=O)OC1C(O[C@H]2C[C@H]3[C@@H]4CC=C5C[C@@H](O)CC[C@]5(C)C4CC[C@]3(C)[C@@]2(O)[C@H](C)C(=O)CCC(C)C)OCC(O)C1OC1OCC(O)C(O)C1O (stereo partly drawn) [Compound 7],63 ± 12 nM,120 ± 40 nM,17 ± 2 nM,41 ± 25 nM,120 ± 31 nM,
CC(C)CCC(=O)[C@@H](C)[C@@]1(O)[C@@H](OC2OCC(O)C(OC3OCC(O)C(O)C3O)C2O)C[C@H]2[C@@H]3CC=C4C[C@@H](O)CC[C@]4(C)C3CC[C@@]21C (stereo partly drawn) [Compound 8],170 ± 7 nM,1400 ± 400 nM,220 ± 60 nM,570 ± 250 nM,760 ± 200 nM,
C=CCOC(=O)NCc1ccc(CNC(=O)O[C@H]2CC[C@@]3(C)C(=CC[C@@H]4C3CC[C@@]3(C)[C@H]4C[C@H](OC4OCC(O)C(OC5OCC(O)C(O)C5O)C4O)[C@]3(O)[C@H](C)C(=O)CCC(C)C)C2)cc1 (stereo partly drawn) [Compound 20],,6500 ± 3600 nM,550 ± 300 nM,,,
COc1ccc(C(=O)OC2C(OC3C(O)COC(O[C@H]4C[C@H]5[C@@H]6CC=C7C[C@@H](OC(=O)NCCCCCCNC(=O)OCC8c9ccccc9-c9ccccc98)CC[C@]7(C)C6CC[C@]5(C)[C@@]4(O)[C@H](C)C(=O)CCC(C)C)C3OC(C)=O)OCC(O)C2O)cc1 (stereo partly drawn) [Compound 102],,85 nM,97 nM,,,
C=CCOC(=O)NCCCCCCNC(=O)O[C@H]1CC[C@@]2(C)C(=CC[C@@H]3C2CC[C@@]2(C)[C@H]3C[C@H](OC3OCC(O)C(OC4OCC(O)C(O)C4OC(=O)c4ccc(OC)cc4)C3OC(C)=O)[C@]2(O)[C@H](C)C(=O)CCC(C)C)C1 (stereo partly drawn) [Compound 103],,172 ± 2 nM,138 ± 16 nM,,,
C=CCOC(=O)NCCCCCCNC(=O)O[C@H]1CC[C@@]2(C)C(=CC[C@@H]3C2CC[C@@]2(C)[C@H]3C[C@H](OC3OCC(O)C(OC4OCC(O)C(O)C4O)C3O)[C@]2(O)[C@H](C)C(=O)CCC(C)C)C1 (stereo partly drawn) [Compound 104],,> 2700 nM,525 ± 4 nM,,,
C=CCOC(=O)NCc1ccc(CNC(=O)O[C@H]2CC[C@@]3(C)C(=CC[C@@H]4C3CC[C@@]3(C)[C@H]4C[C@H](OC4OCC(O)C(OC5OCC(O)C(O)C5OC(=O)c5ccc(OC)cc5)C4OC(C)=O)[C@]3(O)[C@H](C)C(=O)CCC(C)C)C2)cc1 (stereo partly drawn) [Compound 106],,91 ± 10 nM,5 ± 3 nM,,,
"COc1ccc(C(=O)OC2C(OC3C(O)COC(O[C@H]4C[C@H]5[C@@H]6CC=C7C[C@@H](O[Si](C)(C)C(C)(C)C)CC[C@]7(C)C6CC[C@]5(C)[C@@]4(O)[C@H](C)C(=O)CCC(C)C)C3OC(C)=O)OCC(O)C2O)cc1 (stereo partly drawn) [Compound 108, 3-(tert-Butyldimethylsilyl)-OSW-1]",,2300 ± 200 nM,720 ± 90 nM,1600 ± 500 nM,,"[^3H]-25-OHC K1 (nM) OSBP1-myc-his (OSBP1-myc-his; [4]): None detected; competition with [3H]-25-OHC for binding to OSBP1 (OSBP1-myc-his; listed as 9): did not compete; also recorded: does not bind; fold less active than OSW-1 (2) in HCT-116 cells [1]: ca. 1,400 fold; GI50 ([1]; HCT-116, read-out: GI50 in HCT-116 cells): 2300 nM; fold less cytotoxic than 2 in HCT-116 p21−/− cells (HCT-116 p21^−/− cells): 2100 fold; fold less cytotoxic than 2 in A549 cells (A549 cells): 700 fold; [^3H]-25-OHC K1 (nM) ORP4L-myc-his (ORP4L-myc-his; [4]): None detected; competition with [3H]-25-OHC for binding to ORP4L (ORP4L-myc-his; listed as 9): did not compete; also recorded: does not bind"
CC(C)C[C@@H](C=O)NC(=O)[C@H](CC(C)C)NC(=O)[C@H](CC(C)C)NC(=O)OCc1ccccc1 [MG-132] (Cbz-Leu-Leu-Leu-aldehyde),,,,,,"block of OSBP1 degradation by 1 and 2 [2]: completely blocked; effect on OSBP1 levels, compound alone [2]: did not affect"
C[C@H]1CCC/C=C/[C@@H]2C[C@H](O)C[C@H]2[C@H](O)/C=C/C(=O)O1 [brefeldin A],,,,,,effect of 25-OHC co-administration on the antiproliferative activity (HCT-116 cells): did not affect
CC(=O)N[C@@H](CSC(=O)[C@]1([C@@H](O)C(C)C)NC(=O)[C@H](C)[C@@H]1O)C(=O)O [lactacystin],,,,,,"block of OSBP1 degradation by 1 and 2 [2]: completely blocked; effect on OSBP1 levels, compound alone [2]: did not affect"
